Reference: US20220257774A1, “AROMATIC AMINE AR AHD BET TARGETING PROTEIN DEGRADATION CHIMERA COMPOUND AND USE” (HINOVA PHARMACEUTICALS INC., priority 2019, published 2022)
Read-outs that look alike come from different tables or passages of the source.

Assays:
LNCaP/AR cells = test: Inhibition of the proliferation of LNCap/AR cells (CCK-8); type: cell-based; settings: 144 h, read-out: LNCap/AR IC50
Outline: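 Proliferation was read by CCK-8 (OD 450 nm, 1 h) after six days of compound exposure. Cells were seeded at 1000 per well overnight, then dosed in duplicate over nine 3-fold steps with a top final concentration of 10 μM in 0.1% DMSO; IC50 was fitted from inhibition curves.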

22RV1 cells = test: Inhibition of the proliferation of drug-resistant prostate cancer cell 22RV1 (CCK-8); type: cell-based; settings: Homo sapiens; 22RV1 cells (enzalutamide-resistant), same method
Outline: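 22RV1 cells, 1000/well in RPMI1640 with 10% FBS, treated in duplicate with 9-point 3-fold dilutions from 10 μM (0.1% DMSO final). After 6 days at 37 °C, CCK-8 added for 1 h and OD450 read. IC50 from dose-response inhibition fit.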

[1] = LNCaP/AR cells, 6 days culture, CCK-8

Row | IC50 (22RV1 cells) [nM] | IC50 (LNCaP/AR cells; [1]) [nM] | SMILES | IC50 (LNCaP/AR cells; LNCaP/AR) [nM]
1 | > 2000 | > 2000 | Cc1ccc(-c2c(C)noc2C)cc1N(CC1CCN(CC2CN(c3ccc4c(c3)C(=O)N(C3CCC(=O)NC3=O)C4=O)C2)CC1)c1ccc(C2(C#N)CC2)cc1 (stereo not shown) [Compound 78, 1-(4-((5-(3,5-dimethylisoxazol-4-yl)-2-methylphenyl)((1-((1-(2-(2,6-dioxopiperidin-3-yl)-1,3-dioxoisoindolin-5-yl)azetidin-3-yl)methyl)piperidin-4-yl)methyl)amino)phenyl)cyclopropane-1-carbonitrile] | 
2 | > 2000 | > 2000 | Cc1ccc(-c2c(C)noc2C)cc1N(CC1CN([C@H]2C[C@H](Nc3cc4c(cc3F)C(=O)N(C3CCC(=O)NC3=O)C4=O)C2)C1)c1ccc(C2(C#N)CC2)cc1 (stereo partly shown) [Compound 72, 1-(4-((5-(3,5-dimethylisoxazol-4-yl)-2-methylphenyl][(1-((1r,3r)-3-((2-(2,6-dioxopiperidin-3-yl)-6-fluoro-1,3-dioxoisoindolin-5-yl)amino)cyclobutyl)azetidin-3-yl)methyl)amino)phenyl)cyclopropane-1-nitrile] | 
3 | > 2000 | > 2000 | Cc1ccc(-c2c(C)noc2C)cc1N(c1ccc(C2(C#N)CC2)cc1)C1CN(c2ccc3c(c2)C(=O)N(C2CCC(=O)NC2=O)C3=O)C1 (stereo not shown) [Compound 35, 1-(4-((5-(3,5-Dimethylisoxazol-4-yl)-2-methylphenyl)(1-(2-(2,6-dioxopiperidin-3-yl)-1,3-dioxoisoindolin-5-yl)azetidin-3-yl)amino)phenyl)cyclopropane-1-nitrile] | 
4 | > 2000 | > 2000 | Cc1ccc(-c2c(C)noc2C)cc1N(CC(C)O[C@H]1CCN(c2ccc3c(c2)C(=O)N(C2CCC(=O)NC2=O)C3=O)C1)c1ccc(C2(C#N)CC2)cc1 (stereo partly drawn) [Compound 103, 1-(4-((5-(3,5-Dimethylisoxazol-4-yl)-2-methylphenyl)(2-(((3S)-1-(2-(2,6-dioxopiperidin-3-yl)-1,3-dioxoisoindolin-5-yl)pyrrolidin-3-yl)oxy)propyl)amino)phenyl)cyclopropanecarbonitrile] | 
5 | > 2000 | > 2000 | Cc1ccc(-c2c(C)noc2C)cc1N(CC1CCN(c2cc3c(cc2F)C(=O)N(C2CCC(=O)NC2=O)C3=O)C1)c1ccc(C2(C#N)CC2)cc1 (stereo not shown) [Compound 107] | 

Row | SMILES | IC50 (22RV1 cells) [nM] | IC50 (LNCaP/AR cells; [1]) [nM] | IC50 (LNCaP/AR cells; LNCaP/AR) [nM]
6 | Cc1ccc(-c2c(C)n[nH]c2C)cc1N(CCCCCOCC(=O)N[C@H](C(=O)N1C[C@H](O)C[C@H]1C(=O)N[C@@H](C)c1ccc(-c2scnc2C)cc1)C(C)(C)C)c1ccc(C#N)c(Cl)c1 [Compound 44, (2S,4R)-1-((S)-2-(2-((5-((3-chloro-4-cyanophenyl)(5-(3,5-dimethyl-1H-pyrazol-4-yl)-2-methylphenyl)amino)pentyl)oxy)acetylamino)-3,3-dimethylbutyryl)-4-hydroxy-N—((S)-1-(4-(4-methylthiazol-5-yl)phenyl)ethyl)pyrrolidinyl-2-formamide] | > 2000 |  | 101 to 500
7 | Cc1ccc(-c2c(C)noc2C)cc1N(C[C@H]1CC[C@H](CNc2ccc3c(c2)C(=O)N(C2CCC(=O)NC2=O)C3=O)CC1)c1ccc(C#N)c(Cl)c1 (stereo partly shown) [Compound 132, 2-Chloro-4-((5-(3,5-dimethylisoxazol-4-yl)-2-methylphenyl)(((1r,4r)-4-(((2-(2,6-dioxopiperidin-3-yl)-1,3-dioxoisoindolin-5-yl)amino)methyl)cyclohexyl)methyl)amino)benzonitrile] | 101 to 500 |  | > 2000
8 | Cc1ccc(-c2c(C)noc2C)cc1N(CCCCNc1cc2c(cc1F)C(=O)N(C1CCC(=O)NC1=O)C2)c1ccc(C#N)c(Cl)c1 (stereo not shown) [Compound 167, 2-Chloro-4-((5-(3,5-dimethylisoxazol-4-yl)-2-methylphenyl)(4-((2-(2,6-dioxopiperidin-3)-6-fluoro-1-isoindolinone-5-yl)amino)butyl)amino)benzonitrile] | > 2000 |  | 501 to 2000
